The text below walks through data of ChEMBL document CHEMBL1148901, “07H239-A, a new cytotoxic eremophilane sesquiterpene from the marine-derived Xylariaceous fungus LL-07H239” (J Nat Prod, 2004).

Format in all cases: functional, cell-based
One experiment deals with SW948. The experiment is described as follows: Cytotoxicity against human SW948 cells.
The test system of a further experiment is CCRF-CEM. The experiment is described as follows: Cytotoxicity against human CCRF-CEM cells.
Experiment [1] in a line: Cytotoxicity against human A2780DDP cells.
The next experiment has as its system T47D. The experiment in a line: Cytotoxicity against human T47D cells.
Experiment [2] is described as follows: Cytotoxicity against human […] cells.
Experiment [3] in a line: Cytotoxicity against human NEC cells.
For a further experiment, the system named is COLO 205. The experiment is described as follows: Cytotoxicity against human COLO205 cells.
Another experiment concerns MCF7. The experiment is described as follows: Cytotoxicity against human MCF7 cells.
Another experiment has as its system Caco-2. The experiment is described as follows: Cytotoxicity against human Caco-2 cells.
Experiment [4] can be described thus: Cytotoxicity against human A2780S cells. Conditions: A2780.
A further experiment relates to SW-620. The experiment is described as follows: Cytotoxicity against human SW620 cells.
For the next experiment, the system named is DU-145. The experiment in a line: Cytotoxicity against human DU145 cells.
A further experiment deals with CX-1. The experiment in a line: Cytotoxicity against human CX-1 cells.
Experiment [5] can be described thus: Cytotoxicity against human LOX cells.
The subject of a further experiment is HCT-15. The experiment is described as follows: Cytotoxicity against human HCT15 cells.
Another experiment relates to PC-3. The experiment is described as follows: Cytotoxicity against human PC3 cells.
A short description of experiment [6]: Cytotoxicity against human CCL228 cells.
Another experiment concerns A549. The experiment in a line: Cytotoxicity against human A549 cells.
Another experiment relates to LX-1. The experiment is described as follows: Cytotoxicity against human LX1 cells.
The nature of experiment [7]: Cytotoxicity against human LS 174T cells. Conditions: LS174T.
A further experiment has as its system LNCaP. The experiment in a line: Cytotoxicity against human LNCAP cells.
A further experiment deals with SK-BR-3. The experiment in a line: Cytotoxicity against human SK-BR-3 cells.

In brackets after ≈: the same amount, converted by molar mass.

On to `C=C(C=O)[C@@H]1C[C@@]2(C)C(=CC1=O)[C@H](OC(=O)/C=C/C=C/C(C)CC(C)CC)CC[C@@H]2C(=O)O` (relative stereo), for which the IC50 – broadly, the concentration that inhibits the measured activity by half – in the experiment on SW948 was 3.09 µg/mL (≈ 6.77 µM); in the experiment with CCRF-CEM it was 0.88 µg/mL (≈ 1.93 µM); in [1], 3.01 µg/mL (≈ 6.59 µM); with T47D it was 3.5 µg/mL (≈ 7.67 µM); in experiment [2] it was 2.47 µg/mL (≈ 5.41 µM); in [3] it was 3.38 µg/mL (≈ 7.4 µM). Moreover, the IC50 with COLO 205 came to 3.41 µg/mL (≈ 7.47 µM); in the experiment on MCF7 it was 2.83 µg/mL (≈ 6.2 µM); with Caco-2 it was 3.25 µg/mL (≈ 7.12 µM); in [4] it was 3.09 µg/mL (≈ 6.77 µM); in the experiment on SW-620, 3.6 µg/mL (≈ 7.88 µM); with DU-145 it was 3.06 µg/mL (≈ 6.7 µM). Also, the IC50 worked out at 3.21 µg/mL (≈ 7.03 µM) in the experiment on CX-1; 3.43 µg/mL (≈ 7.51 µM) in experiment [5]; 4.08 µg/mL (≈ 8.94 µM) in the experiment with HCT-15; 3.59 µg/mL (≈ 7.86 µM) with PC-3; 3.04 µg/mL (≈ 6.66 µM) in [6]; 3.95 µg/mL (≈ 8.65 µM) in the experiment with A549. The IC50 with LX-1 came to 4.16 µg/mL (≈ 9.11 µM); in experiment [7], 3.29 µg/mL (≈ 7.21 µM); in the experiment on LNCaP, 3.06 µg/mL (≈ 6.7 µM); in the experiment with SK-BR-3 it was 3.53 µg/mL (≈ 7.73 µM).
